In general, fraction unbound refers to free concentration divided by total concentration. A low value points to extensive binding.

Here are results for eight compounds from publication PMC4416786, “Validation of a P-Glycoprotein (P-gp) Humanized Mouse Model by Integrating Selective Absolute Quantification of Human MDR1, Mouse Mdr1a and Mdr1b Protein Expressions with In Vivo Functional Analysis for Blood-Brain Barrier Transport” (PLoS ONE, 2015).

Molecules are shown by their SMILES. Where two headings read alike, the source gives them in different places.

Data set [1] deals with P-gp. Also on record: method as in PMID 16850390. To be noted: cited from earlier work.
Data set [2] concerns the target T1, P-gp (Mus musculus, UniProt P21447). The note with it: C57BL/6 WT mice, oxycodone 1 mg/kg s.c., cyclosporine A 100 mg/kg i.p., verapamil 3 mg/kg s.c. or elacridar 6 mg/kg s.c. one hour before.
Excerpt: Brain and liver were sampled after sacrificing the animal.
(§1) The total brain concentration (ng/g brain tissue) of the substance was divided with the total plasma concentration (ng/ml) of the substance to obtain the tissue partition ratio (Kp), which was compared between the groups of mice. […] The the fraction unbound in plasma (fu, p) measured with equilibrium dialysis was used in the calculations.
Data set [3] concerns human P-gp (hMDR1). To be noted: digoxin 1 mg/kg s.c.; blocker one hour before digoxin.
Excerpt: as §1
The target in data set [4] is T1, P-gp. Also on record: hMDR1 and C57BL/6 WT mice; from tissue; host or cells: blood-brain barrier (brain capillaries) of living male C57BL/6 WT mice; method as in PMID 7910522. The note with it: cited from earlier work.
In data set [5] the test system is P-gp. Also on record: method as in PMID 19047468. The note with it: PET imaging; cited from earlier work.
The next data set in a line: in vitro. The protocol: Equilibrium dialysis was performed to measure the plasma unbound fraction of the drugs studied, and to measure possible differences in the plasma protein binding between hMDR1 and C57BL/6 WT mice. A high throughput, 96 well equilibrium dialysis apparatus (Model HTD96b, HTDialysis, Connecticut, USA) with dialysis membrane strips with a molecular weight cut-off of 12–14 kDa was used. The concentrations of the substances were the same as those achieved in plasma during the in vivo experiments. One side of each well used was loaded with 125 μl of plasma spiked with drug and the other side was loaded with 125 μl phosphate buffer saline (PBS). The top surface of the Teflon block was then sealed with an adhesive film. […] Triplicates of the same concentration for each compound were measured. After the incubation period 80 μl from the buffer side was added into 80 μl of blank mouse plasma and 80 μl from the plasma was added into 80 μl of PBS. Samples were stored at -20 until analysis.

For data set [6], the system named is P-gp. The note with it: rats; cited from earlier work.
The conditions of data set [7]: C57BL/6, mouse, 5 h, 200 nM.
The next data set addresses mouse P-gp (Mus musculus, UniProt P21447). Kind of data set: in vivo. The note with it: C57BL/6, mouse.
Data set [8] deals with human P-gp (hMDR1). The note with it: mouse, in vivo.
The target in data set [9] is T1, P-gp. To be noted: in vivo.
Description: Brain to plasma total concentration ratios (Kp) of the substances were measured for each animal. Unbound volume of distribution in brain (Vu, brain) was measured with the brain slice method [14] and fraction unbound in plasma (fu, p) was measured with high throughput equilibrium dialysis.
All the substances were administered subcutaneously except docetaxel, which was given intravenously in the tail vein as a slow injection over five minutes due to its tissue irritating character. […] The volume administered of all substances was 0.01 ml/g_body weight.
Blood was collected with a pre-heparinized syringe by cardiac puncture and was centrifuged for 5 minutes at 10000 rpm to obtain plasma. Brain was also sampled. The brain was divided in two equal parts and frozen on dry ice before weighed. All the samples were stored at -80°C until analysis.
as §1
The test system of data set [10] is human P-gp (hMDR1). As to the kind of experiment: in vivo. The note with it: hMDR1 (MDR1 humanized), mouse.
Setting [11] is: hMDR1 (MDR1 humanized), mouse, plasma.

T1 sequence (P21447 whole entry): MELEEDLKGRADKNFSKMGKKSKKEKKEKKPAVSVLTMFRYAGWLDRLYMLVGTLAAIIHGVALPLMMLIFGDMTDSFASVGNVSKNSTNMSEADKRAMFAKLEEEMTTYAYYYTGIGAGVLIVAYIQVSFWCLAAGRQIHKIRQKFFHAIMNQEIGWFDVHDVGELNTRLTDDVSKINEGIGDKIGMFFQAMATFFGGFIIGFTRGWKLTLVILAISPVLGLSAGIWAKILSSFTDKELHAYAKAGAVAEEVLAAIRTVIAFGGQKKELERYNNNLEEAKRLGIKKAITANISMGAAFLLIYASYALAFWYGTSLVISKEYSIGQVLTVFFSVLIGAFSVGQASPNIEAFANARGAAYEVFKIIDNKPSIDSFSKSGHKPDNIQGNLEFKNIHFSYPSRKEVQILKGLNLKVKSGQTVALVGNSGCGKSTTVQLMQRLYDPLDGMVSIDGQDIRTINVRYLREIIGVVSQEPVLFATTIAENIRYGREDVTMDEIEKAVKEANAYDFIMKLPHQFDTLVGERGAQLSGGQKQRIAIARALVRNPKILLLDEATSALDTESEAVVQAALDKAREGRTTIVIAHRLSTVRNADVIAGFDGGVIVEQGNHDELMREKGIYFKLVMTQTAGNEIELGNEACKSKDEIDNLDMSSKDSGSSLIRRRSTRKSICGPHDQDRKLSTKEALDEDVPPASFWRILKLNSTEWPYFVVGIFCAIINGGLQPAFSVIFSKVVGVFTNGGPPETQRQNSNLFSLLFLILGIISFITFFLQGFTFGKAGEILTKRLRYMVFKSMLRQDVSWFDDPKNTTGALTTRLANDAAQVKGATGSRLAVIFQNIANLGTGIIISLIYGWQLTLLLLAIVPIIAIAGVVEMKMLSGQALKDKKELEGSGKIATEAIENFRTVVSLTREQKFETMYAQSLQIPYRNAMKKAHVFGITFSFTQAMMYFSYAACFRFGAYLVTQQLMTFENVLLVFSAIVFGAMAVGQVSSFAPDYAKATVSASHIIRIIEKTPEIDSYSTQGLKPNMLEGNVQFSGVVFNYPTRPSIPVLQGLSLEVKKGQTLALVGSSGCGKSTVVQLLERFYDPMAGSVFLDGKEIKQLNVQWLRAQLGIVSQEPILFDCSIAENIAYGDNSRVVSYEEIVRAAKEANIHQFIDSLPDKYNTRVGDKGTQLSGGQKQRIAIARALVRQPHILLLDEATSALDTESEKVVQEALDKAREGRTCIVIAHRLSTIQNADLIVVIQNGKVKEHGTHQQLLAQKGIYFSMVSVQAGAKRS
mouse P-gp, sequence (P21447 whole entry): as above

For `COc1cc2c(cc1OC)CN(CCc1ccc(NC(=O)c3cccc4c(=O)c5cccc(OC)c5[nH]c34)cc1)CC2` [Elacridar], the “Blood concentration needed in guinea pigs to obtain the same inhibition as in rats and mice” value with P-gp [1] is given as “higher blood concentration”. Moreover, the results for the “Effect of the P-gp blocker on oxycodone Kp” value on P-gp [2] and at P-gp [2] (listed as elacridar (GF120918)) were “not changed” and “no effect”, respectively. The “Digoxin Kp in hMDR1 mice compared to C57BL/6 WT controls when treated with the blocker” value in the data set with human P-gp (hMDR1) [3] was “significantly higher”.
`CC[C@]1(O)C[C@@H]2CN(CCc3c([nH]c4ccccc34)[C@@](C(=O)OC)(c3cc4c(cc3OC)N(C)[C@H]3[C@@](O)(C(=O)OC)[C@H](OC(C)=O)[C@]5(CC)C=CCN6CC[C@]43[C@@H]65)C2)C1` [vinblastine]: on P-gp [4], the “Sensitivity of Mdr1a(-/-) mice compared to wild type controls” value is 3 fold.
As to `O=C(c1ccc([18F])cc1)C1CCN(CCn2c(=S)[nH]c3ccccc3c2=O)CC1` [[18F]altanserine], in the data set on P-gp [5], the “Brain penetration in humans relative to rodents” value was 4.5 times.
Consider `C=C[C@H]1C[N@@]2CC[C@H]1C[C@@H]2[C@@H](O)c1ccnc2ccc(OC)cc12` [Quinidine, Quinidine gluconate], for which the “Digoxin Kp in hMDR1 mice compared to C57BL/6 WT controls when treated with the blocker” value in the data set on human P-gp (hMDR1) [3] is recorded as “significantly higher”.
In the case of `C[C@H]1O[C@@H](O[C@H]2[C@@H](O)C[C@H](O[C@H]3[C@@H](O)C[C@H](O[C@H]4CC[C@@]5(C)[C@H](CC[C@@H]6[C@@H]5C[C@@H](O)[C@]5(C)[C@@H](C7=CC(=O)OC7)CC[C@]65O)C4)O[C@@H]3C)O[C@@H]2C)C[C@H](O)[C@@H]1O` [Digoxin], the fraction unbound in the data set “in vitro” (C57BL/6, mouse, plasma) came out at 0.594; in “in vitro” (setting [11]), 0.607.
Turning to `C/C=C/C[C@@H](C)C(=O)[C@H]1C(=O)N[C@@H](C(C)C)C(=O)N(C)CC(=O)N(C)[C@@H](CC(C)C)C(=O)N[C@@H](C(C)C)C(=O)N(C)[C@@H](CC(C)C)C(=O)N[C@@H](C)C(=O)N[C@H](C)C(=O)N(C)[C@@H](CC(C)C)C(=O)N(C)[C@@H](CC(C)C)C(=O)N(C)[C@@H](C(C)C)C(=O)N1C` [PSC833], in the data set on P-gp [6], the “Effect of the P-gp blocker on the tail-flick latency of oxycodone” value was “no effect”.
With `COc1ccc2c3c1O[C@H]1C(=O)CC[C@@]4(O)[C@@H](C2)N(C)CC[C@]314` [Oxycodone], the fraction unbound came to 0.681 in the data set “in vitro” (C57BL/6, mouse) and 0.681 in “in vitro” (hMDR1 (MDR1 humanized), mouse).
With `CC(=O)O[C@@]12CO[C@@H]1C[C@H](O)[C@@]1(C)C(=O)[C@H](O)C3=C(C)[C@@H](OC(=O)[C@H](O)[C@@H](NC(=O)OC(C)(C)C)c4ccccc4)C[C@@](O)([C@@H](OC(=O)c4ccccc4)[C@H]21)C3(C)C` [Docetaxel], the “Vu, brain” value in data set [7] is 789 ml/g_brain. In [7], the “Vu, brain (nonspecific binding to brain parenchymal tissue)” value is recorded as 789 ml*g_brain^-1. The Kp uu at 1 h at mouse P-gp is 0.002; in the data set on human P-gp (hMDR1) [10] it was 0.003. In addition, the “Kp in hMDR1 mice relative to C57BL/6 WT mice” value with human P-gp (hMDR1) [8] came to 2 times. Also, the “Kp in Mdr1a/1b(-/-) mice relative to FVB WT controls” value at P-gp [9] turned out to be 4 times. Further, the fraction unbound in the data set “in vitro” (C57BL/6, mouse, plasma) is 0.053; in “in vitro” (setting [11]), 0.052.
